One assay has as its target NEK2 (human) (UniProt P51955). Description: radiometric filter-binding kinase assay, Kinase HotSpot. The note with it: compound 0.5 µM; ATP 10 µM.
Sequence of PLK3 (human) (Q9H4B4 whole entry, looked up): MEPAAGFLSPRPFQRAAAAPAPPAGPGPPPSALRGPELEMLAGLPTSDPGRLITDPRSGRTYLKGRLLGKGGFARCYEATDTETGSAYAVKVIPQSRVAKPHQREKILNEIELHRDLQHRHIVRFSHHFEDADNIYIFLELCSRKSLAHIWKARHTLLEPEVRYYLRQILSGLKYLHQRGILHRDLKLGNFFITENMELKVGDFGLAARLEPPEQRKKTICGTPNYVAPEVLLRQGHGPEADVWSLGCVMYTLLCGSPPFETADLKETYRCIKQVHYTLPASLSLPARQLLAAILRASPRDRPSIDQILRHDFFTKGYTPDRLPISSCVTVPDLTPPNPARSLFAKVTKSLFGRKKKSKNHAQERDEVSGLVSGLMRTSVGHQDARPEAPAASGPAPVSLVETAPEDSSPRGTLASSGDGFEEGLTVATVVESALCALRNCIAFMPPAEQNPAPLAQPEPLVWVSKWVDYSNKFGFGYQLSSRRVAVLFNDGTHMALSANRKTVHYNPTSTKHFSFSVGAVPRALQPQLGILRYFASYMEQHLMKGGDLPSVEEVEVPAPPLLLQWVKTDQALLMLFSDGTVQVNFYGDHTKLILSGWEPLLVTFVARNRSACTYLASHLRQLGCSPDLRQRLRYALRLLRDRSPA
Sequence of SRC (human) (P12931 whole entry, looked up): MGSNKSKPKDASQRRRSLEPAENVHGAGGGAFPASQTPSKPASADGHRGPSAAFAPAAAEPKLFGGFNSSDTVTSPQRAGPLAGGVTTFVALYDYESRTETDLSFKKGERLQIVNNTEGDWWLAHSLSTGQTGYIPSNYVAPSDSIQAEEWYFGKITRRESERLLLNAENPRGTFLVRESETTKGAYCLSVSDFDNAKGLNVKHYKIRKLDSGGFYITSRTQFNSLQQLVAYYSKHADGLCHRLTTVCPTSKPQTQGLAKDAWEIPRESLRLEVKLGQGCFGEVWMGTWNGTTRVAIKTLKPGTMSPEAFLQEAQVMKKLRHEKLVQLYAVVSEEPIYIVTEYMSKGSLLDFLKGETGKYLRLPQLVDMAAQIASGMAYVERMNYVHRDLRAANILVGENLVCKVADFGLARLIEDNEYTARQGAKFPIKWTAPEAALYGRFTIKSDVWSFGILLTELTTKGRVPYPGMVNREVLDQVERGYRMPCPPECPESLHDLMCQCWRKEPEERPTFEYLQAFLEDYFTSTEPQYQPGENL
Sequence of NEK2 (human) (P51955 whole entry, looked up): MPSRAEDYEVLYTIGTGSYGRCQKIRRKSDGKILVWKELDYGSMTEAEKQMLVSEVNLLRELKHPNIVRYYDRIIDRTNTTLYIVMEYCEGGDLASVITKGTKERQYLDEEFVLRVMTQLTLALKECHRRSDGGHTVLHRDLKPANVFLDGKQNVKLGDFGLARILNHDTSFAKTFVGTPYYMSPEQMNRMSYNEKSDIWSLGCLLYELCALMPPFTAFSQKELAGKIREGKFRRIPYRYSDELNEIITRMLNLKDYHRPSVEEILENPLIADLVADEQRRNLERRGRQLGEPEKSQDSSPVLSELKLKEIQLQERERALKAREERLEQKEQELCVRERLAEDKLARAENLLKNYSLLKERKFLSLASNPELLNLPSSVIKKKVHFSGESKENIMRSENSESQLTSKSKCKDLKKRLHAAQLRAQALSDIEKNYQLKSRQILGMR
Sequence of PRKG2 (human) (Q13237 whole entry, looked up): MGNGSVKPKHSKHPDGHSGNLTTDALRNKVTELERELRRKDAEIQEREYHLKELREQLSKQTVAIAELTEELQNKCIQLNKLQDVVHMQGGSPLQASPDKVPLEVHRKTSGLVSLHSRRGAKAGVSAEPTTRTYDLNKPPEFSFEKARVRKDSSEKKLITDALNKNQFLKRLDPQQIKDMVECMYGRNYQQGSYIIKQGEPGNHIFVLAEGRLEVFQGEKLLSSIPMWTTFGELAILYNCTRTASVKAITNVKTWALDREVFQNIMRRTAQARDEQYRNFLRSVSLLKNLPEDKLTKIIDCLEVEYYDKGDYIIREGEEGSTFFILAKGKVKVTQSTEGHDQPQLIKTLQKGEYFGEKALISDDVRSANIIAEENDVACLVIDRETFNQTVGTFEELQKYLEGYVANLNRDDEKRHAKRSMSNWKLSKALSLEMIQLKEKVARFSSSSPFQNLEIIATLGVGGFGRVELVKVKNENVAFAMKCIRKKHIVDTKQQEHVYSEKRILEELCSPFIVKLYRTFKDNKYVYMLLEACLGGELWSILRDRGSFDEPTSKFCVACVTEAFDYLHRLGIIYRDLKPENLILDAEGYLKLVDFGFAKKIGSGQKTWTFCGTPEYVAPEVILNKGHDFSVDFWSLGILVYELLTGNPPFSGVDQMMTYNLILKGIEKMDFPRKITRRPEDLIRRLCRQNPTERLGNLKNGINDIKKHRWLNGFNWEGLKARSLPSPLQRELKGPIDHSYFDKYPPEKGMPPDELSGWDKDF
Sequence of RPS6KA6 KD1 KD2 (human) (Q9UK32 whole entry, looked up): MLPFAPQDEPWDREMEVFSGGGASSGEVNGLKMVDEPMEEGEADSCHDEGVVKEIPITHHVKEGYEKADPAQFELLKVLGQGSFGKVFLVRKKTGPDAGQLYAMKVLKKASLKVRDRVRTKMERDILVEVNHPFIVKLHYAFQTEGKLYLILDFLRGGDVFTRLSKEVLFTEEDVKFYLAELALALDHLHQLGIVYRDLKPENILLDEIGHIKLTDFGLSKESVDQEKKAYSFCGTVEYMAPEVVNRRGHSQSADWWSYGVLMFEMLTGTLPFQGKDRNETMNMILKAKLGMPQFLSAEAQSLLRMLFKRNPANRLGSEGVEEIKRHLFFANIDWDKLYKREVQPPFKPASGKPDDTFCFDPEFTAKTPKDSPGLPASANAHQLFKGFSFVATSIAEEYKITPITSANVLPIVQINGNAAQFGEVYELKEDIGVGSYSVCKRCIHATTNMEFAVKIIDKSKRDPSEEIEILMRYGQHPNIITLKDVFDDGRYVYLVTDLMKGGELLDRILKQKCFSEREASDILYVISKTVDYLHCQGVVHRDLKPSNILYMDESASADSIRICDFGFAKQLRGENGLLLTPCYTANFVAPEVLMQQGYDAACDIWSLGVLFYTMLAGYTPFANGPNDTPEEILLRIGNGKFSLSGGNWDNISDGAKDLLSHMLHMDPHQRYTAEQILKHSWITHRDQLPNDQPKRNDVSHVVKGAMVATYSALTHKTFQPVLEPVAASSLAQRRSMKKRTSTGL
Sequence of PHKG1 (human) (Q16816 whole entry, looked up): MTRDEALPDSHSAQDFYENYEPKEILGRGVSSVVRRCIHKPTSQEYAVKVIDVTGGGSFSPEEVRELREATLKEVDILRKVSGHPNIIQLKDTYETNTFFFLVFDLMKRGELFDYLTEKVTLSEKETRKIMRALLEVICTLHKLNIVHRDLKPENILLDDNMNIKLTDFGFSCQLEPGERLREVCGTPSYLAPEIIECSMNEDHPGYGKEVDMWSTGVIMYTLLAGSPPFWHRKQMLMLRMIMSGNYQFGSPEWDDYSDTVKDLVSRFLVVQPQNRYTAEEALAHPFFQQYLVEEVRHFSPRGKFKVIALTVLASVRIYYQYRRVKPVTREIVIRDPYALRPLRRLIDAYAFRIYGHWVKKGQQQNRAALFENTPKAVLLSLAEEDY
Sequence of PRKCE (human) (Q02156 whole entry, looked up): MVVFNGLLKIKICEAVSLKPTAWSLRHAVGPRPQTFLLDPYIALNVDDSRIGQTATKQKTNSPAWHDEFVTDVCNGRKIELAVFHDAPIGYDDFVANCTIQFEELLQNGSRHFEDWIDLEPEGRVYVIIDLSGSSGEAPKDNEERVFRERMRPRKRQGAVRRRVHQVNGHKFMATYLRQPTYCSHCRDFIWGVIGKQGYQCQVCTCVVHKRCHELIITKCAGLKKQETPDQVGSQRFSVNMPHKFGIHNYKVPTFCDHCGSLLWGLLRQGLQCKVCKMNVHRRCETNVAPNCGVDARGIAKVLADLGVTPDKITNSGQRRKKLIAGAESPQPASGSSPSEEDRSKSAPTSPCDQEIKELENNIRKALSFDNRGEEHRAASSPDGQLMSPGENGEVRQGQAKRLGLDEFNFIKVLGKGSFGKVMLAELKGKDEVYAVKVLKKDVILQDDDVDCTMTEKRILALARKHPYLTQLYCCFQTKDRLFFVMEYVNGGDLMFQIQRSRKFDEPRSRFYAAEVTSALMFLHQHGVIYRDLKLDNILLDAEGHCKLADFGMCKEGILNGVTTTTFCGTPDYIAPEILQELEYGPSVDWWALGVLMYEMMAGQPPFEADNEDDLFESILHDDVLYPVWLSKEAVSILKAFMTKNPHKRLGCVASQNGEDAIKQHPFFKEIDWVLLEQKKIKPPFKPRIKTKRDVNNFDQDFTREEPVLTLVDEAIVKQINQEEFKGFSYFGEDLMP
`CNc1cc2c(Nc3cccc(Br)c3)ncnc2cn1`: the residual activity – broadly, the signal under treatment as a percentage of the control signal – was 88.3%.

As to `O=C1Nc2ccc(Cl)cc2/C1=C/c1cc(Cl)c(O)c(Cl)c1`, the residual activity amounted to 86%.

As for `O=C1NC(=O)/C(=C/c2ccc3c(c2)OC(F)(F)O3)S1`, the residual activity was found to be 98.9%.

The target in the next assay is NTRK1 (human) (UniProt P04629). The assay is described as above. The conditions noted are these: compound 0.5 µM; ATP 10 µM.
With `CNc1cc2c(Nc3cccc(Br)c3)ncnc2cn1`, the residual activity was 95.9%.

For `O=C1Nc2ccc(Cl)cc2/C1=C/c1cc(Cl)c(O)c(Cl)c1`, the residual activity was determined as 87.4%.

On to `O=C1NC(=O)/C(=C/c2ccc3c(c2)OC(F)(F)O3)S1`, for which the residual activity was determined as 92.5%.

The target of the next assay is NTRK2 (human) (UniProt Q16620). The description is as above. The conditions noted are these: compound 0.5 µM; ATP 10 µM.
Regarding `CNc1cc2c(Nc3cccc(Br)c3)ncnc2cn1`, the residual activity was determined as 94.3%.

On to `O=C1Nc2ccc(Cl)cc2/C1=C/c1cc(Cl)c(O)c(Cl)c1`, for which the residual activity was found to be 61.1%.

Turning to `O=C1NC(=O)/C(=C/c2ccc3c(c2)OC(F)(F)O3)S1`, the residual activity was 91.9%.

A further assay has as its target NTRK3 (human) (UniProt Q16288). The assay is described as above. The conditions noted are these: compound 0.5 µM; ATP 10 µM.
For the molecule `CNc1cc2c(Nc3cccc(Br)c3)ncnc2cn1`, the residual activity came out at 72.7%.

With `O=C1Nc2ccc(Cl)cc2/C1=C/c1cc(Cl)c(O)c(Cl)c1`, the residual activity was determined as 44.8%.

Consider `O=C1NC(=O)/C(=C/c2ccc3c(c2)OC(F)(F)O3)S1`, for which the residual activity came to 98%.

A further assay has as its target PAK4 (human) (UniProt O96013). The description is as above. The note with it: compound 0.5 µM; ATP 10 µM.
As to `CNc1cc2c(Nc3cccc(Br)c3)ncnc2cn1`, the residual activity came to 93%.

As to `O=C1Nc2ccc(Cl)cc2/C1=C/c1cc(Cl)c(O)c(Cl)c1`, the residual activity is 88.7%.

For the molecule `O=C1NC(=O)/C(=C/c2ccc3c(c2)OC(F)(F)O3)S1`, the residual activity came to 90%.

The next assay has as its target PDGFRB (human) (UniProt P09619). The assay is described as above. The note with it: compound 0.5 µM; ATP 10 µM.
Take `CNc1cc2c(Nc3cccc(Br)c3)ncnc2cn1`: the residual activity turned out to be 86.4%.

For the molecule `O=C1Nc2ccc(Cl)cc2/C1=C/c1cc(Cl)c(O)c(Cl)c1`, the residual activity is 76.9%.

As for `O=C1NC(=O)/C(=C/c2ccc3c(c2)OC(F)(F)O3)S1`, the residual activity was 97.4%.

Another assay concerns the target PHKG1 (human) (UniProt Q16816). The assay is described as above. The conditions noted are these: compound 0.5 µM; ATP 10 µM.
As to `CNc1cc2c(Nc3cccc(Br)c3)ncnc2cn1`, the residual activity stood at 91.4%.

As to `O=C1Nc2ccc(Cl)cc2/C1=C/c1cc(Cl)c(O)c(Cl)c1`, the residual activity came out at 86.4%.

Turning to `O=C1NC(=O)/C(=C/c2ccc3c(c2)OC(F)(F)O3)S1`, the residual activity was determined as 94.2%.

A further assay has as its target PLK3 (human) (UniProt Q9H4B4). The description is as above. The note with it: compound 0.5 µM; ATP 10 µM.
`CNc1cc2c(Nc3cccc(Br)c3)ncnc2cn1`: the residual activity came out at 96.4%.

Consider `O=C1Nc2ccc(Cl)cc2/C1=C/c1cc(Cl)c(O)c(Cl)c1`, for which the residual activity is 98.2%.

With `O=C1NC(=O)/C(=C/c2ccc3c(c2)OC(F)(F)O3)S1`, the residual activity came out at 92.4%.

Another assay addresses PRKCE (human) (UniProt Q02156). The description is as above. The note with it: compound 0.5 µM; ATP 10 µM.
Turning to `CNc1cc2c(Nc3cccc(Br)c3)ncnc2cn1`, the residual activity was found to be 99.8%.

Regarding `O=C1Nc2ccc(Cl)cc2/C1=C/c1cc(Cl)c(O)c(Cl)c1`, the residual activity turned out to be 100%.

Turning to `O=C1NC(=O)/C(=C/c2ccc3c(c2)OC(F)(F)O3)S1`, the residual activity was found to be 103%.

The next assay concerns the target PRKD2 (human) (UniProt Q9BZL6). Described as above. The conditions noted are these: compound 0.5 µM; ATP 10 µM.
For the molecule `CNc1cc2c(Nc3cccc(Br)c3)ncnc2cn1`, the residual activity was 86.4%.

Take `O=C1Nc2ccc(Cl)cc2/C1=C/c1cc(Cl)c(O)c(Cl)c1`: the residual activity was found to be 95.5%.

With `O=C1NC(=O)/C(=C/c2ccc3c(c2)OC(F)(F)O3)S1`, the residual activity turned out to be 91.5%.

A further assay has as its target PRKG2 (human) (UniProt Q13237). Described as above. The note with it: compound 0.5 µM; ATP 10 µM.
Consider `CNc1cc2c(Nc3cccc(Br)c3)ncnc2cn1`, for which the residual activity amounted to 102%.

Consider `O=C1Nc2ccc(Cl)cc2/C1=C/c1cc(Cl)c(O)c(Cl)c1`, for which the residual activity amounted to 97%.

For the molecule `O=C1NC(=O)/C(=C/c2ccc3c(c2)OC(F)(F)O3)S1`, the residual activity worked out at 104%.

The target of another assay is PTK2 (human) (UniProt Q05397). The assay is described as above. The conditions noted are these: compound 0.5 µM; ATP 10 µM.
On to `CNc1cc2c(Nc3cccc(Br)c3)ncnc2cn1`, for which the residual activity is 90.2%.

`O=C1Nc2ccc(Cl)cc2/C1=C/c1cc(Cl)c(O)c(Cl)c1`: the residual activity was found to be 91.5%.

`O=C1NC(=O)/C(=C/c2ccc3c(c2)OC(F)(F)O3)S1`: the residual activity came to 94.9%.

The target in the next assay is PTK6 (human) (UniProt Q13882). The description is as above. The note with it: compound 0.5 µM; ATP 10 µM.
Turning to `CNc1cc2c(Nc3cccc(Br)c3)ncnc2cn1`, the residual activity is 54.4%.

Take `O=C1Nc2ccc(Cl)cc2/C1=C/c1cc(Cl)c(O)c(Cl)c1`: the residual activity stood at 73.8%.

For `O=C1NC(=O)/C(=C/c2ccc3c(c2)OC(F)(F)O3)S1`, the residual activity worked out at 94.8%.

The next assay addresses RPS6KA6 KD1 KD2 (human) (UniProt Q9UK32). The assay is described as above. The conditions noted are these: compound 0.5 µM; ATP 10 µM.
`CNc1cc2c(Nc3cccc(Br)c3)ncnc2cn1`: the residual activity was found to be 81.8%.

Regarding `O=C1Nc2ccc(Cl)cc2/C1=C/c1cc(Cl)c(O)c(Cl)c1`, the residual activity was found to be 78.5%.

As for `O=C1NC(=O)/C(=C/c2ccc3c(c2)OC(F)(F)O3)S1`, the residual activity is 96.5%.

The target of a further assay is SLK (human) (UniProt Q9H2G2). The description is as above. The note with it: compound 0.5 µM; ATP 10 µM.
For the molecule `CNc1cc2c(Nc3cccc(Br)c3)ncnc2cn1`, the residual activity was found to be 63%.

As for `O=C1Nc2ccc(Cl)cc2/C1=C/c1cc(Cl)c(O)c(Cl)c1`, the residual activity is 95.3%.

On to `O=C1NC(=O)/C(=C/c2ccc3c(c2)OC(F)(F)O3)S1`, for which the residual activity amounted to 98.3%.

Another assay concerns the target SRC (human) (UniProt P12931). Described as above. The conditions noted are these: compound 0.5 µM; ATP 10 µM.
For the molecule `CNc1cc2c(Nc3cccc(Br)c3)ncnc2cn1`, the residual activity turned out to be 94.6%.

Turning to `O=C1Nc2ccc(Cl)cc2/C1=C/c1cc(Cl)c(O)c(Cl)c1`, the residual activity is 96.2%.

Regarding `O=C1NC(=O)/C(=C/c2ccc3c(c2)OC(F)(F)O3)S1`, the residual activity worked out at 98.4%.

The next assay addresses SRMS (human) (UniProt Q9H3Y6). The assay is described as above. The conditions noted are these: compound 0.5 µM; ATP 10 µM.
For the molecule `CNc1cc2c(Nc3cccc(Br)c3)ncnc2cn1`, the residual activity is 100%.

For the molecule `O=C1Nc2ccc(Cl)cc2/C1=C/c1cc(Cl)c(O)c(Cl)c1`, the residual activity was found to be 86.3%.

Regarding `O=C1NC(=O)/C(=C/c2ccc3c(c2)OC(F)(F)O3)S1`, the residual activity is 103%.

The next assay concerns the target STK16 (human) (UniProt O75716). The assay is described as above. The conditions noted are these: compound 0.5 µM; ATP 10 µM.
Consider `CNc1cc2c(Nc3cccc(Br)c3)ncnc2cn1`, for which the residual activity worked out at 98.6%.

`O=C1Nc2ccc(Cl)cc2/C1=C/c1cc(Cl)c(O)c(Cl)c1`: the residual activity turned out to be 90.2%.

For the molecule `O=C1NC(=O)/C(=C/c2ccc3c(c2)OC(F)(F)O3)S1`, the residual activity turned out to be 91%.

The next assay concerns the target TLK2 (human) (UniProt Q86UE8). Described as above. The note with it: compound 0.5 µM; ATP 10 µM.
On to `CNc1cc2c(Nc3cccc(Br)c3)ncnc2cn1`, for which the residual activity was 114%.

For `O=C1Nc2ccc(Cl)cc2/C1=C/c1cc(Cl)c(O)c(Cl)c1`, the residual activity is 105%.

As for `O=C1NC(=O)/C(=C/c2ccc3c(c2)OC(F)(F)O3)S1`, the residual activity came out at 104%.

In another assay the target is TTK (human) (UniProt P33981). The assay is described as above. The conditions noted are these: compound 0.5 µM; ATP 10 µM.
In the case of `CNc1cc2c(Nc3cccc(Br)c3)ncnc2cn1`, the residual activity was 100%.

In the case of `O=C1Nc2ccc(Cl)cc2/C1=C/c1cc(Cl)c(O)c(Cl)c1`, the residual activity is 84.4%.

On to `O=C1NC(=O)/C(=C/c2ccc3c(c2)OC(F)(F)O3)S1`, for which the residual activity is 102%.

The next assay deals with WEE1 (human) (UniProt P30291). The assay is described as above. The conditions noted are these: compound 0.5 µM; ATP 10 µM.
Sequence of WEE1 (human) (P30291 whole entry, looked up): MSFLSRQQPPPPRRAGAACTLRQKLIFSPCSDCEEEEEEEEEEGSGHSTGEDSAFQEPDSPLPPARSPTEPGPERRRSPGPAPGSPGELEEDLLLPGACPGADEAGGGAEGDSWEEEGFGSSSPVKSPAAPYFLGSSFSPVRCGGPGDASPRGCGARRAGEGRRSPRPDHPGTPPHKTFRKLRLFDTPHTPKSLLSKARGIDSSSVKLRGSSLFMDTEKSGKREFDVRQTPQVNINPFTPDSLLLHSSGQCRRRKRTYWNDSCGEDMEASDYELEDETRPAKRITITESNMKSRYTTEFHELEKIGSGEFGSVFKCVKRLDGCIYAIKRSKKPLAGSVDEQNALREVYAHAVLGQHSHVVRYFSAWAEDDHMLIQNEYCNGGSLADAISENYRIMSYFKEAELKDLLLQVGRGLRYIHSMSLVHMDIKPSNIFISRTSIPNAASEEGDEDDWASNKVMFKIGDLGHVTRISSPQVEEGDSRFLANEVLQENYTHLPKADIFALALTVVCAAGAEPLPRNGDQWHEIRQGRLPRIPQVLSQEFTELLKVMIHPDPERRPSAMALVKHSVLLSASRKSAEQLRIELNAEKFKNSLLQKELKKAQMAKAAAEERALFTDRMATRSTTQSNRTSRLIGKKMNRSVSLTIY
Take `CNc1cc2c(Nc3cccc(Br)c3)ncnc2cn1`: the residual activity was 75.9%.

As for `O=C1Nc2ccc(Cl)cc2/C1=C/c1cc(Cl)c(O)c(Cl)c1`, the residual activity turned out to be 79.1%.

For the molecule `O=C1NC(=O)/C(=C/c2ccc3c(c2)OC(F)(F)O3)S1`, the residual activity turned out to be 88.8%.

Values taken from the kinase profiling compilation of Christmann-Franck et al. (2016).
